According to US5258406A, “Sulfonimidamides” (priority 1992, dated 1993):
Read-outs that look alike come from different tables or passages of the source.

How the values were obtained:
Assay type in all cases: in vivo
[1] = system: ELC2; experiment: Inhibition of ELC2 tumor growth in mice; details: IP, DX 10
Method: (§1) The compounds were tested in C3H mice bearing a 6C3HED lymphosarcoma, also known as the Gardner lymphosarcoma (GLS), and in a variety of human tumor xenografts in CD1 nu/nu mice, including CX-1, LX-1, HXGC3, and VRC5. The 6C3HED lymphosarcoma was obtained from the Division of Cancer Treatment, National […] Institute, Tumor Bank, maintained at E. G. and G. Mason Research (Worcester, Mass.). The CX-1 human colon carcinoma and the LX-1 human lung carcinoma xenografts were obtained from the National Cancer Institute. The HXGC3 and VRC5 human colon xenografts were obtained from Dr. P. J. Houghton, St. Jude Children's Hospital in Memphis (see Br. J. Cancer, 37, 213 (1978)). First passage tumor was stored in liquid nitrogen using standard techniques. The transplanted tumor was reestablished from the Tumor Bank every six months or as needed. The tumor was maintained by serial passage twice weekly in C3H mice.
(§2) In the procedure the tumor was removed from passage animals and minced into 1- to 3-mm square fragments using sterile techniques. Tumor pieces were checked for sterility using both Antibiotic Medium 1 and Brain Heart Infusion (Difco, Detroit, Mich.). Recipient mice were shaved and tumor pieces were implanted subcutaneously in the auxiliary region by trocar. Drug therapy on the appropriate schedule was initiated on the day after tumor implant for 6C3HED and after a seven (7) day delay for xenografts (or other delay as noted in Table 2). The compound being tested was mixed with 2.5% Emulphor EL620 from GAF Corporation (1:40 dilution in saline). Food and water were provided ad libitium. The drug was administered orally in 0.5 ml of 2.5% Emulphor (unless otherwise indicated). The tumor was measured the day after treatment ended with two dimensional measurements (width and length) of the tumor taken using automated digital calipers interfaced to a microcomputer. Approximate weight for the tumor was calculated using the following formula [Worzalla, J. F., et al., Invest. New Drugs, 8, 241 (1990], (tumor weight in mg)=(width in mm)^2 ×(length in mm)/2.
(§3) At least one control group of an equal number of mice was treated with the same volume of 2.5% Emulphor only. The percent inhibition was determined by subtracting the ratio of the mean tumor size of the test group relative to the control group from one and multiplying the result times 100.
(§4) The results of several experiments in mice bearing a 6C3HED lymphosarcoma (or other tumor where indicated) when the indicated compounds were administered are provided in Table 2. In Table 2, column 1 gives the Example number of the compound used, column 2 lists the dose level in mg/kg, column 3 provides the percent inhibition of tumor growth, column 4 gives the number of mice which died relative to the total number of animals in the group, column 5 gives the method of administration of the compound, and column 6 gives the dosage schedule. The protocol used with other tumors was the same as with the 6C3HED lymphosarcoma.

[2] = system: Lewis Lung Carcinoma; experiment: Inhibition of Lewis Lung Carcinoma growth in mice; details: IP, DX 10
Method: as §1, §2, §3, §4
(m) Tumor type Lewis Lung Carcinoma

[3] = system: 6C3HED lymphosarcoma; experiment: animal or person
[4] = system: X5563 Plasma Cell Myeloma; details: IP, DX 10
Method: as §1, §2, §3, §4
(p) Tumor type X5563 Plasma Cell Myeloma

[5] = system: HC1; details: IP, DX 10
[6] = system: LX1; details: IP
Method in brief: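 Tumor fragments implanted subcutaneously by trocar in C3H mice (6C3HED) or CD1 nu/nu mice (xenografts); oral dosing in 2.5% Emulphor began day after implant (6C3HED) or after 7-day delay (xenografts). Tumor weight from caliper measurements the day after treatment ended; percent inhibition versus Emulphor-only controls.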

[7] = system: CX1; details: IP, DX 10, from day 7 after implant
[8] = system: MX1; details: IP, DX 10
[9] = 3.75 mg/kg, DX 10 (line among ELC2 lines)
[10] = 3.75 mg/kg, DX 10, from day 7 after implant
[11] = 7.5 mg/kg, DX 10, from day 7 after implant
[12] = 15 mg/kg, DX 10, from day 7 after implant
[13] = 30 mg/kg, DX 10, from day 7 after implant

## Cc1ccc(S(=N)(=O)NC(=O)Nc2ccc(Cl)cc2)cc1C (stereo not drawn) [Example 36, N-[[(4-chlorophenyl)amino]carbonyl]-3,4-dimethylbenzenesulfonimidamide]
[1]; 7.5 mg/kg
  % inhibition of tumor growth: 0%
  Tox/Tot (mice which died / total): 0/10
[1]; 15 mg/kg
  % inhibition of tumor growth: 3%
  Tox/Tot (mice which died / total): 0/10
[1]; 30 mg/kg
  % inhibition of tumor growth: TOX
  Tox/Tot (mice which died / total): 10/10
[2]; 7.5 mg/kg
  % inhibition of tumor growth: 6%
  Tox/Tot (mice which died / total): 0/10
[2]; 15 mg/kg
  % inhibition of tumor growth: 32%
  Tox/Tot (mice which died / total): 0/10
[2]; 30 mg/kg
  % inhibition of tumor growth: 34%
  Tox/Tot (mice which died / total): 0/10
[3]; IP, 0.25 mg/kg, BIDX 8
  Tox/Tot (mice which died / total): 0/10
[3]; IP, 0.5 mg/kg, BIDX 8
  Tox/Tot (mice which died / total): 0/10
[3]; IP, 1 mg/kg, BIDX 8
  Tox/Tot (mice which died / total): 0/10
[3]; IP, 2 mg/kg, BIDX 8
  Tox/Tot (mice which died / total): 0/10
[3]; IP, 3.125 mg/kg, DX 8
  Tox/Tot (mice which died / total): 0/10
[3]; IP, 4 mg/kg, BIDX 8
  Tox/Tot (mice which died / total): 0/10
[3]; IP, 6.25 mg/kg, DX 8
  Tox/Tot (mice which died / total): 0/10
[3]; IP, 12.5 mg/kg, DX 8
  Tox/Tot (mice which died / total): 1/10
[3]; IP, 12.5 mg/kg, Days 1, 3, 5, 7
  Tox/Tot (mice which died / total): 0/10
[3]; IP, 25 mg/kg, DX 8
  Tox/Tot (mice which died / total): 2/10
[3]; IP, 25 mg/kg, Days 1, 3, 5, 7
  Tox/Tot (mice which died / total): 0/10
[3]; IP, 50 mg/kg, DX 8
  Tox/Tot (mice which died / total): 6/10
[3]; IP, 50 mg/kg, Days 1, 3, 5, 7
  Tox/Tot (mice which died / total): 0/10
[3]; IP, 100 mg/kg, Days 1, 3, 5, 7
  Tox/Tot (mice which died / total): 3/10
[3]; Mus musculus, 6C3HED, ip, read-out: % inhibition of tumor growth, IP, 0.25 mg/kg, BIDX 8
  inhibition in vivo at 0.25 mg/kg: 16%
[3]; Mus musculus, 6C3HED, ip, read-out: % inhibition of tumor growth, IP, 0.5 mg/kg, BIDX 8
  inhibition in vivo at 0.5 mg/kg: 29%
[3]; Mus musculus, 6C3HED, ip, read-out: % inhibition of tumor growth, IP, 1 mg/kg, BIDX 8
  inhibition in vivo at 1 mg/kg: 43%
[3]; Mus musculus, 6C3HED, ip, read-out: % inhibition of tumor growth, IP, 2 mg/kg, BIDX 8
  inhibition in vivo at 2 mg/kg: 75%
[3]; Mus musculus, 6C3HED, ip, read-out: % inhibition of tumor growth, IP, 3.125 mg/kg, DX 8
  inhibition in vivo at 3.125 mg/kg: 74%
[3]; Mus musculus, 6C3HED, ip, read-out: % inhibition of tumor growth, IP, 4 mg/kg, BIDX 8
  inhibition in vivo at 4 mg/kg: 97%
[3]; Mus musculus, 6C3HED, ip, read-out: % inhibition of tumor growth, IP, 6.25 mg/kg, DX 8
  inhibition in vivo at 6.25 mg/kg: 93%
[3]; Mus musculus, 6C3HED, ip, read-out: % inhibition of tumor growth, IP, 12.5 mg/kg, DX 8
  inhibition in vivo at 12.5 mg/kg: 98%
[3]; Mus musculus, 6C3HED, ip, read-out: % inhibition of tumor growth, IP, 12.5 mg/kg, Days 1, 3, 5, 7
  inhibition in vivo at 12.5 mg/kg: 88%
[3]; Mus musculus, 6C3HED, ip, read-out: % inhibition of tumor growth, IP, 25 mg/kg, DX 8
  inhibition in vivo at 25 mg/kg: 100%
[3]; Mus musculus, 6C3HED, ip, read-out: % inhibition of tumor growth, IP, 25 mg/kg, Days 1, 3, 5, 7
  inhibition in vivo at 25 mg/kg: 99%
[3]; Mus musculus, 6C3HED, ip, read-out: % inhibition of tumor growth, IP, 50 mg/kg, DX 8
  inhibition in vivo at 50 mg/kg: 100%
[3]; Mus musculus, 6C3HED, ip, read-out: % inhibition of tumor growth, IP, 50 mg/kg, Days 1, 3, 5, 7
  inhibition in vivo at 50 mg/kg: 99%
[3]; Mus musculus, 6C3HED, ip, read-out: % inhibition of tumor growth, IP, 100 mg/kg, Days 1, 3, 5, 7
  inhibition in vivo at 100 mg/kg: 100%
[3]; Mus musculus, 6C3HED, po, read-out: % inhibition of tumor growth, oral, 6.25 mg/kg, BIDX 8
  inhibition in vivo at 6.25 mg/kg: 100%
[3]; Mus musculus, 6C3HED, po, read-out: % inhibition of tumor growth, oral, 12.5 mg/kg, BIDX 8
  inhibition in vivo at 12.5 mg/kg: 100%
[3]; Mus musculus, 6C3HED, po, read-out: % inhibition of tumor growth, oral, 25 mg/kg, BIDX 8
  inhibition in vivo at 25 mg/kg: 100%
[3]; Mus musculus, 6C3HED, po, read-out: % inhibition of tumor growth, oral, 50 mg/kg, BIDX 8
  inhibition in vivo at 50 mg/kg: 100%
[3]; Mus musculus, 6C3HED, po, read-out: % inhibition of tumor growth, oral, 150 mg/kg, BIDX 8
  inhibition in vivo at 150 mg/kg: 99%
[3]; oral, 6.25 mg/kg, BIDX 8
  Tox/Tot (mice which died / total): 2/8
[3]; oral, 12.5 mg/kg, BIDX 8
  Tox/Tot (mice which died / total): 5/8
[3]; oral, 25 mg/kg, BIDX 8
  Tox/Tot (mice which died / total): 2/8
[3]; oral, 50 mg/kg, BIDX 8
  Tox/Tot (mice which died / total): 7/8
[3]; oral, 100 mg/kg, BIDX 8
  % inhibition of tumor growth: TOX
  Tox/Tot (mice which died / total): 8/8
[3]; oral, 150 mg/kg, BIDX 8
  Tox/Tot (mice which died / total): 6/10
[3]; oral, 300 mg/kg, BIDX 8
  % inhibition of tumor growth: TOX
  Tox/Tot (mice which died / total): 10/10
[4]; 3.75 mg/kg
  % inhibition of tumor growth: 35%
  Tox/Tot (mice which died / total): 0/10
[4]; 7.5 mg/kg
  % inhibition of tumor growth: 63%
  Tox/Tot (mice which died / total): 1/10
[4]; 15 mg/kg
  % inhibition of tumor growth: 88%
  Tox/Tot (mice which died / total): 4/10
[4]; 30 mg/kg
  % inhibition of tumor growth: 97%
  Tox/Tot (mice which died / total): 3/10
[5]; 7.5 mg/kg
  % inhibition of tumor growth: 1%
  Tox/Tot (mice which died / total): 0/10
[5]; 15 mg/kg
  % inhibition of tumor growth: 24%
  Tox/Tot (mice which died / total): 0/10
[5]; 30 mg/kg
  % inhibition of tumor growth: 46%
  Tox/Tot (mice which died / total): 6/10
[5]; 60 mg/kg
  % inhibition of tumor growth: TOX
  Tox/Tot (mice which died / total): 10/10
[6]; [9]
  % inhibition of tumor growth: 0%
  Tox/Tot (mice which died / total): 0/10
[6]; [10]
  % inhibition of tumor growth: 16%
  Tox/Tot (mice which died / total): 0/10
[6]; [11]
  % inhibition of tumor growth: 1%
  Tox/Tot (mice which died / total): 0/10
[6]; [12]
  % inhibition of tumor growth: 18%
  Tox/Tot (mice which died / total): 1/10
[6]; [13]
  % inhibition of tumor growth: TOX
  Tox/Tot (mice which died / total): 10/10
[7]; 3.75 mg/kg
  % inhibition of tumor growth: 4%
  Tox/Tot (mice which died / total): 0/10
[7]; 7.5 mg/kg
  % inhibition of tumor growth: 10%
  Tox/Tot (mice which died / total): 0/10
[7]; 15 mg/kg
  % inhibition of tumor growth: 32%
  Tox/Tot (mice which died / total): 1/10
[7]; 30 mg/kg
  % inhibition of tumor growth: 23%
  Tox/Tot (mice which died / total): 4/10
[8]; 3.75 mg/kg
  % inhibition of tumor growth: 5%
  Tox/Tot (mice which died / total): 0/10
[8]; 7.5 mg/kg
  % inhibition of tumor growth: 0%
  Tox/Tot (mice which died / total): 0/10
[8]; 15 mg/kg
  % inhibition of tumor growth: 0%
  Tox/Tot (mice which died / total): 0/10
[8]; 30 mg/kg
  % inhibition of tumor growth: 12%
  Tox/Tot (mice which died / total): 4/10
